Each block holds one molecule with its values, some of them ahead of it. Active and inactive are the calls of the source.
Experiments:
[1] = viability loss in CEM21 cells – cell-based, CellTiter-Glo luminescence, cherry-picked, cytotoxicity control for viral fusion inhibitor project, dose response (AID 652042); assay type: functional;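 further: potency for signal decrease meaning cytotoxicity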
INS1 = test: INS-1E survival protection against cytokine death – cell-based, luminescence, retest, dose response (AID 449756); assay type: functional; details: Rattus norvegicus;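 further: cell death triggered by IL-1 beta plus TNF-alpha plus IFN-gamma mixture; protective hits raise ATP signal compared with cytokine alone wells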
[2] = target: T1, Apoptotic protease-activating factor 1 (Homo sapiens, UniProt O14727); assay type: functional
T1 sequence (O14727 whole entry): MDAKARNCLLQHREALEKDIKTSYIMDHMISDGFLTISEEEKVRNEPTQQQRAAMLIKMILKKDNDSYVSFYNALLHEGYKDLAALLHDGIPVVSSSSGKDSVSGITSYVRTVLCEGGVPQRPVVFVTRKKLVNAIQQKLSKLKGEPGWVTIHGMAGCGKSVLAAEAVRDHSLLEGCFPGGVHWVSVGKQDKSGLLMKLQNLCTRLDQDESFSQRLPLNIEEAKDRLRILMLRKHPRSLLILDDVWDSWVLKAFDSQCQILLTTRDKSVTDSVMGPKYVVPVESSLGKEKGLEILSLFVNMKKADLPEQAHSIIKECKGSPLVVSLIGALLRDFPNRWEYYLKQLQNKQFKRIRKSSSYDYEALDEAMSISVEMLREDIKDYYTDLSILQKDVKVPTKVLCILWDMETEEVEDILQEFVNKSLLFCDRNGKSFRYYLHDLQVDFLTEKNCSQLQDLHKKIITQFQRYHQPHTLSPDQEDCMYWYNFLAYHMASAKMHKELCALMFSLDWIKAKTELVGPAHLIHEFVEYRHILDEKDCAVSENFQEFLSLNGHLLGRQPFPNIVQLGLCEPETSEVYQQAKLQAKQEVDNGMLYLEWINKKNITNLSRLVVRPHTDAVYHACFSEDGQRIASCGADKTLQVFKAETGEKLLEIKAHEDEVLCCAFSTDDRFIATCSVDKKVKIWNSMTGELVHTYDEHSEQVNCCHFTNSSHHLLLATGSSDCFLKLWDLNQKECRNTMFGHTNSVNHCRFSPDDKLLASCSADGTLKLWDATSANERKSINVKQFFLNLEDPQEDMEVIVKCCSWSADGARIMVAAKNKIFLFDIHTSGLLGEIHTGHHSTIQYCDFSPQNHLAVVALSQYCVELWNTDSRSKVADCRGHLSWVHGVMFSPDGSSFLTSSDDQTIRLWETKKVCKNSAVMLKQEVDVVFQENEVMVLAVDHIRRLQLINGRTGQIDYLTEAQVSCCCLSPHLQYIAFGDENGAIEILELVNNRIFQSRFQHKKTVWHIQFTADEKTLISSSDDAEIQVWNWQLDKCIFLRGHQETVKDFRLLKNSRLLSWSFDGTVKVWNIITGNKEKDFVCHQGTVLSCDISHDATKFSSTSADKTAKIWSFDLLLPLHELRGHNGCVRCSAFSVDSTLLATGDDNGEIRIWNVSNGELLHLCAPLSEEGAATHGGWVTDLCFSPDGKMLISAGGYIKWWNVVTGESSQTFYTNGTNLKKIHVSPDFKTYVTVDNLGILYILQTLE

[3] = blockers of HIV-1 ZM109 envelope-driven cell-cell fusion – HeLa effector, CEM target cells, luciferase, cherry-pick, dose response (AID 652058); assay type: functional, cell-based;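 further: luciferase signal from HIV-1 Env mediated cell-cell fusion of effector and target cells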
[4] = HIV-1 AD8 envelope cell-cell fusion blockers – cherry-pick, dose response (AID 652062); assay type: functional, cell-based;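 further: luciferase signal from cell-cell fusion driven by HIV-1 clade B AD8 Env; potency is for inhibitors of fusion seen as a drop in luminescence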
[5] = blockers of HIV-1 envelope-mediated cell-cell fusion – cherry-pick, dose response (AID 652057); assay type: functional, cell-based
[6] = off-target signal loss in HeLa-CEM21 co-culture – HeLa F-luc CTL cells, cherry-picked, counter-screen for HIV-1 Env fusion inhibitor project, dose response (AID 652040); assay type: functional, cell-based;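 further: potency for signal decrease marking cytotoxic or nonspecific inhibition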
Melanocortin receptor 4 = Melanocortin receptor 4 (Homo sapiens, UniProt P32245); assay type: functional, cell-based;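 further: Cell-based assay with luminescence read-out, confirmatory dose-response testing for agonist activity of biased ligands at MC4R; human U2OS cells with tagged receptor and beta-arrestin; potency of agonists that increase receptor coupling to beta-arrestin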
P388 = test: cells; assay type: functional; details: Mus musculus
P388/ADR = test: cells; assay type: functional; details: Mus musculus
[7] = target: Aryl hydrocarbon receptor (Homo sapiens, UniProt P35869); details: Potency;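 further: confirmatory quantitative high-throughput screen measuring activation of the AhR signaling pathway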
SN12K1 = test: cells; assay type: functional; details: Homo sapiens
HEK293 [8] = test: optical interference in Abeta FP readout, dose response, artefact control for IDE activator project, biochemical, fluorescence polarization (AID 588442); assay type: functional, cell-based; details: Homo sapiens
HEK293 [9] = test: membrane integrity loss in HEK cells – cell-based, fluorescence, cytotoxicity control for IDE activator project, dose response (AID 588440); assay type: functional; details: Homo sapiens;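 further: cytotoxicity by LDH release measuring loss of membrane integrity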
Insulin-degrading enzyme [10] = target: T2, Insulin-degrading enzyme (Homo sapiens, UniProt P14735); test: recombinant IDE activation, cell-free – biochemical, fluorescence polarization, counter-screen for IDE activator project, dose response (AID 588681)
T2 sequence (P14735 whole entry): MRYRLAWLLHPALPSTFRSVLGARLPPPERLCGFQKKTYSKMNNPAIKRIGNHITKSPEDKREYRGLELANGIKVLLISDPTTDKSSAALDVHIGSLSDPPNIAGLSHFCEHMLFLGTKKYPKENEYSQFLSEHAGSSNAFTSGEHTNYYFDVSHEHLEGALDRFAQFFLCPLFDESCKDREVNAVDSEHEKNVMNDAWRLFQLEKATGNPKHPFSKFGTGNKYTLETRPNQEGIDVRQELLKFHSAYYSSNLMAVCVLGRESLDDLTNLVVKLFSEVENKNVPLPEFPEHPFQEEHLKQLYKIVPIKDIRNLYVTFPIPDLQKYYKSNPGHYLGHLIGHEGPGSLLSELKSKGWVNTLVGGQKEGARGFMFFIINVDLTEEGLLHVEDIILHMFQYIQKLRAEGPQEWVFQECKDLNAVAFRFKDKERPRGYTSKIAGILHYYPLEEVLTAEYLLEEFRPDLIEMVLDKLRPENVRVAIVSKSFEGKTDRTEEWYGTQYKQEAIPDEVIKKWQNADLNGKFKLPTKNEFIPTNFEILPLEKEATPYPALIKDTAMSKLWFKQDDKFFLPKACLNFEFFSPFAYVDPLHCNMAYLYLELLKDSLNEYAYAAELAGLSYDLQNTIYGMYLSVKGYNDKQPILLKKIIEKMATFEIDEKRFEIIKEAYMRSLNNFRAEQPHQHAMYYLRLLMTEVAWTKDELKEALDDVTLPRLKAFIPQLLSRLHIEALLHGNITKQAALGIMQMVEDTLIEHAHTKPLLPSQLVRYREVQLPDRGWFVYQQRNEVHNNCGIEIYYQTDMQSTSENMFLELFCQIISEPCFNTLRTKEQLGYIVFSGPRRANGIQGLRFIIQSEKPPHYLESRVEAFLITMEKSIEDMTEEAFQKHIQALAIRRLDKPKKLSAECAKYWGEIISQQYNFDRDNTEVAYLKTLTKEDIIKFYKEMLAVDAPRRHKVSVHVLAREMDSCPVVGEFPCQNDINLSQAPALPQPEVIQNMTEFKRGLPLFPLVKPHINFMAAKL

Insulin-degrading enzyme [11] = target: T2, Insulin-degrading enzyme; test: cellular IDE activation of Abeta substrate cleavage – fluorescence polarization, HEK cells, dose response (AID 588439); assay type: functional, cell-based
[12] = target: T3, Zinc finger protein mex-5 (Caenorhabditis elegans, UniProt Q9XUB2); test: potency of MEX-5 RNA-binding blockers – biochemical, C. elegans, fluorescence polarization, dose response (AID 1960)
T3 sequence (Q9XUB2 whole entry): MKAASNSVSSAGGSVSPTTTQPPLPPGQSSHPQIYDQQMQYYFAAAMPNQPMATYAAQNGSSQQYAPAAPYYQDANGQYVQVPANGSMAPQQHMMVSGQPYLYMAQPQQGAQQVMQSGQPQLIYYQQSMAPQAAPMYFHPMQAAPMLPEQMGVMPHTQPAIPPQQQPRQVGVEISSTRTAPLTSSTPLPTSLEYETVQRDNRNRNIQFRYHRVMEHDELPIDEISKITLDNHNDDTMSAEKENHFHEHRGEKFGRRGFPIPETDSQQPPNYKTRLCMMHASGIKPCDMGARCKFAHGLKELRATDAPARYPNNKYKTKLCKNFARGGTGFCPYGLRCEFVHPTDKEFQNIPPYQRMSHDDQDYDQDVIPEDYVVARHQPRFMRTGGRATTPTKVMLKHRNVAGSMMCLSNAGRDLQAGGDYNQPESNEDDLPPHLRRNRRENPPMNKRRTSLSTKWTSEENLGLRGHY

[13] = Counterscreen for activators of the function of SWI/SNF related, matrix associated, actin dependent regulator of chromatin, subfamily a, member 2 (SMARCA2, BRM): Luminescence-based cell-based high throughput dose response assay to identify non-selective compounds using the VP16 reporter assay.; assay type: functional
[14] = target: T4, Polyadenylate-binding protein 1 (Homo sapiens, UniProt P11940); test: MLLE domain peptide-binding blockers, IC50 – biochemical, fluorescence polarization, FITC-PAM2 peptide, dose response (AID 602259); assay type: functional; details: read-out: IC50_Mean
[15] = target: T5, RNA-binding protein pos-1 (Caenorhabditis elegans, UniProt G5EF15); test: disruptors of C. elegans POS-1 RNA interaction – biochemical, fluorescence polarization, dose response (AID 1964);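 further: purified POS-1 fused to maltose binding protein made in E. coli; potency of compounds blocking POS-1 binding to fluorescent RNA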
T5 sequence (G5EF15 whole entry): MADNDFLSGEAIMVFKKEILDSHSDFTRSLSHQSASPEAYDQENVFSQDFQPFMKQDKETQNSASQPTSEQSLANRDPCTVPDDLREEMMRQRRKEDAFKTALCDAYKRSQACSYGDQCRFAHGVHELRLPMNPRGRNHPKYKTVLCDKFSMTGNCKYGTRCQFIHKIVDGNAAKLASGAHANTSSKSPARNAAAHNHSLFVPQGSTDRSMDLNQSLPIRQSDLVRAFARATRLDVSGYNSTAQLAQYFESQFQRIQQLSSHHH

[16] = target: SWI/SNF-related matrix-associated actin-dependent regulator of chromatin subfamily A member 2 (Homo sapiens, UniProt P51531); test: Luminescence-based cell-based high throughput dose response assay to identify activators of the function of SWI/SNF related, matrix associated, actin dependent regulator of chromatin, subfamily a, member 2 (SMARCA2, BRM).; assay type: functional
[17] = target: T4, Polyadenylate-binding protein 1; test: MLLE binding blockers, Cy5 peptide tracer – biochemical, fluorescence polarization, Cy5-PAM2 peptide, secondary, miRNA deadenylation inhibitor project, dose response (AID 602260); assay type: functional; details: read-out: IC50_Mean
Paired box protein Pax-8 = Paired box protein Pax-8 (Homo sapiens, UniProt Q06710); test: PAX8 transcriptional activity inhibition in RMG-I – RMG-I cells, luciferase, cherry-pick, dose response (AID 687027); assay type: functional, cell-based;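 further: luciferase reporter driven by Pax8 target thyroperoxidase promoter measured by SteadyGlo luminescence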
[18] = OVCAR-3 cell viability loss – plate reader, dry powder samples, PAX8 inhibitor project, dose response (AID 743044); assay type: functional, cell-based
[19] = IGROV1 cell killing – plate reader, dry powder samples, PAX8 inhibitor project, dose response (AID 743043); assay type: functional, cell-based; details: IGROV-1
[20] = toxicity to human hepatoma HepG2 cells – cell-based, cherry-picked samples, cytotoxicity control, dose response (AID 1159577); assay type: functional
[21] = P. falciparum Dd2 growth inhibitors, dose response, SYBR Green, cherry-picked samples (AID 1159567); assay type: functional, cell-based
[22] = target: Ras and Rab interactor 1/Tyrosine-protein kinase ABL1 (Homo sapiens, UniProt P00519+Q13671); assay type: functional;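 further: biochemical TR-FRET dose-response test measuring inhibition of binding between Rin1 and Abl proteins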
Ras and Rab interactor 1/Tyrosine-protein kinase ABL1, sequence (P00519 whole entry): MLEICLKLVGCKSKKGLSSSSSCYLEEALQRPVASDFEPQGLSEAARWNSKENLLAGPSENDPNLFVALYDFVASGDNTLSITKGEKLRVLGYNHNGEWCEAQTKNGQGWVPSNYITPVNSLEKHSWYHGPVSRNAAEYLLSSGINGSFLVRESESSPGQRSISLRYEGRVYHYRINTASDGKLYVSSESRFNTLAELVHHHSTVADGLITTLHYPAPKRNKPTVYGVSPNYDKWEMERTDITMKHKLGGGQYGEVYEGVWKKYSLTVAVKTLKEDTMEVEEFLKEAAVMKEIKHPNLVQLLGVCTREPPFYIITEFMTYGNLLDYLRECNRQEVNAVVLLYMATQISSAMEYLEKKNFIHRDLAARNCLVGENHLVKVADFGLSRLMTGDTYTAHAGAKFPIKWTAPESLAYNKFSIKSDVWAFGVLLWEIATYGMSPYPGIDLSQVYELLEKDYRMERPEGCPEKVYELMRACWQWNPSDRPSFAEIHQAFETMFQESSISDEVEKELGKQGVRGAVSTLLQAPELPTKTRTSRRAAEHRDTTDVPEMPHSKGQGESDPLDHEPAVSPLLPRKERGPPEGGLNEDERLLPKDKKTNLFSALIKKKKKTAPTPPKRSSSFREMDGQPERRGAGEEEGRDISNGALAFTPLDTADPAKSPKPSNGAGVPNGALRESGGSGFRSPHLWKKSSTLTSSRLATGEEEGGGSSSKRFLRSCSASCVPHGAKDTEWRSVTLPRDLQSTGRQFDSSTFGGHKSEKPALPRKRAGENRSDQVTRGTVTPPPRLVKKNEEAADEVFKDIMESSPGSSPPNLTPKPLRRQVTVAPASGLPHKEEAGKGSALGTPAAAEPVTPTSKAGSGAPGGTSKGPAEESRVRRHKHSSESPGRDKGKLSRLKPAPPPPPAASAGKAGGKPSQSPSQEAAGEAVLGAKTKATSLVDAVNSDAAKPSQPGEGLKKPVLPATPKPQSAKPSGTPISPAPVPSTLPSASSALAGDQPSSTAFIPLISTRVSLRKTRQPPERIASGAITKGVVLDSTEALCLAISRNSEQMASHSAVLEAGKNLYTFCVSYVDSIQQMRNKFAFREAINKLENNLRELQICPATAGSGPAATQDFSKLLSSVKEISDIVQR
Ras and Rab interactor 1/Tyrosine-protein kinase ABL1, sequence (Q13671 whole entry): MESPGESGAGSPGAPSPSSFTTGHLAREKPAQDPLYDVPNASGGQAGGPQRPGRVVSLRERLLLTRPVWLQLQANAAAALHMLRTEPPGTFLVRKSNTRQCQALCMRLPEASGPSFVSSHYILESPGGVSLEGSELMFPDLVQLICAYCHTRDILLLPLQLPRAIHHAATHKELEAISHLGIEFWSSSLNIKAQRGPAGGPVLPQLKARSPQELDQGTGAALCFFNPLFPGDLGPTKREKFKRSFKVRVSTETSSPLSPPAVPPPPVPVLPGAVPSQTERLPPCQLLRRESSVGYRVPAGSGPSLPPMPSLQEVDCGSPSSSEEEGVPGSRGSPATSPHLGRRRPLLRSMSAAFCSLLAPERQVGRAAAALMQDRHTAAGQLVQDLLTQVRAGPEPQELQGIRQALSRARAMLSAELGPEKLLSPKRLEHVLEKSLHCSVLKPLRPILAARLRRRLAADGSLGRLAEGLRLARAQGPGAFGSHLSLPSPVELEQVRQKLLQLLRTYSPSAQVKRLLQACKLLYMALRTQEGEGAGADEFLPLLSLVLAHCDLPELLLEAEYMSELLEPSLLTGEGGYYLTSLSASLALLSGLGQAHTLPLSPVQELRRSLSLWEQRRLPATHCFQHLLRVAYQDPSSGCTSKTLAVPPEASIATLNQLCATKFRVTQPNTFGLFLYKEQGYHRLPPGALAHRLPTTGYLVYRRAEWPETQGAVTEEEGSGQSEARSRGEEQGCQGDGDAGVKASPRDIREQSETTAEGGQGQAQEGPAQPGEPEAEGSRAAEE

Aryl hydrocarbon receptor, sequence (P35869 whole entry): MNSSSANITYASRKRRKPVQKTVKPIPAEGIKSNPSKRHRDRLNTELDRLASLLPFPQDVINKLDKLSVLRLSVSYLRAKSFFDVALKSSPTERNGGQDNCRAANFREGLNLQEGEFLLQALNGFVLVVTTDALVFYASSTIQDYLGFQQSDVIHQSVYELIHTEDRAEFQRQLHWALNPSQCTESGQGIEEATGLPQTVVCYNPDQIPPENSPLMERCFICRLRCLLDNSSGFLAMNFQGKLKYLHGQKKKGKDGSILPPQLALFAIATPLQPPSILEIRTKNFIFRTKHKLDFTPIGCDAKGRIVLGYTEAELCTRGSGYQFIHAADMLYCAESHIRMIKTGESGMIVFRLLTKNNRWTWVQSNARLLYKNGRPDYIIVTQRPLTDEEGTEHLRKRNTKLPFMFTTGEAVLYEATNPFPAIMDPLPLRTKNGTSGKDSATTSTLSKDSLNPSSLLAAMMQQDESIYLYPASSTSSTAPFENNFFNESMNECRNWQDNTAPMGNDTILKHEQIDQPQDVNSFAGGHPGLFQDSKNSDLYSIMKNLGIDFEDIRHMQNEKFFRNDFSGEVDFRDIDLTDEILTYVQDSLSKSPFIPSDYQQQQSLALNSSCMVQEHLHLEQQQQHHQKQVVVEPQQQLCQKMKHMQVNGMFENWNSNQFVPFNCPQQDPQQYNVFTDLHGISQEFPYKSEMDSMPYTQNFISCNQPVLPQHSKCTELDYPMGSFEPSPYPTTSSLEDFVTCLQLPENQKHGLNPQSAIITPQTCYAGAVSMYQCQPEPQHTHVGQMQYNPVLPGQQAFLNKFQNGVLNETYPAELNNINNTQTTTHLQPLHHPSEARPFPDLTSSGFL
T4 sequence (P11940 whole entry, the tested form may be a part): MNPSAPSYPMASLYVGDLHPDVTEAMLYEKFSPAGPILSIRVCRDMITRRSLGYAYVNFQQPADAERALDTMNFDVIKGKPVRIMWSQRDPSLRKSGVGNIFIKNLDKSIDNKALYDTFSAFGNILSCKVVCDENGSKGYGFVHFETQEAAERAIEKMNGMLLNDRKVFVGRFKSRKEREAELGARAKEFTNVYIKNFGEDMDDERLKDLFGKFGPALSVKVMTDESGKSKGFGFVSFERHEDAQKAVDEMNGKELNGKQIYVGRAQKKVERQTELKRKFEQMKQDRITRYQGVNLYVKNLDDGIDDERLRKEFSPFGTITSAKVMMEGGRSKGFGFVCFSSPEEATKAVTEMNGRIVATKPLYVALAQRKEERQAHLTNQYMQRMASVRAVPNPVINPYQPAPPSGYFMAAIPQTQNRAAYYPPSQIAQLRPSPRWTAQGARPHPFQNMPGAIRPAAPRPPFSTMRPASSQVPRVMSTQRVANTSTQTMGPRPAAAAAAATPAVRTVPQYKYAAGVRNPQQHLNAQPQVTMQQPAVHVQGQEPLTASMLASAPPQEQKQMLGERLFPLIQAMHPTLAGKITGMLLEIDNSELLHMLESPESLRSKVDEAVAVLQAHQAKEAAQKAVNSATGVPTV
Paired box protein Pax-8, sequence (Q06710 whole entry): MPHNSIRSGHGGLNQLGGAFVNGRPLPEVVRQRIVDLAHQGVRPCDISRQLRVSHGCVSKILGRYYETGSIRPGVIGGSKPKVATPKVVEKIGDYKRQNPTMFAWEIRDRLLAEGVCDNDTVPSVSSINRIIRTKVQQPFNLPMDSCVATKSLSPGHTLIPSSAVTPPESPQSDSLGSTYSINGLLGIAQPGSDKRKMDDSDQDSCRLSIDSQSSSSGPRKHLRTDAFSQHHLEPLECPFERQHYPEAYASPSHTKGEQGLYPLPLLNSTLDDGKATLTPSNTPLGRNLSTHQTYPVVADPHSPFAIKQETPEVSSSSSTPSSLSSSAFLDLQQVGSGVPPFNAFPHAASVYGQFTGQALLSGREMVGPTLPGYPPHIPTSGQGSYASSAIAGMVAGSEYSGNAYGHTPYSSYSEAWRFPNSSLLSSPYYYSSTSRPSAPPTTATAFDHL
Melanocortin receptor 4, sequence (P32245 whole entry): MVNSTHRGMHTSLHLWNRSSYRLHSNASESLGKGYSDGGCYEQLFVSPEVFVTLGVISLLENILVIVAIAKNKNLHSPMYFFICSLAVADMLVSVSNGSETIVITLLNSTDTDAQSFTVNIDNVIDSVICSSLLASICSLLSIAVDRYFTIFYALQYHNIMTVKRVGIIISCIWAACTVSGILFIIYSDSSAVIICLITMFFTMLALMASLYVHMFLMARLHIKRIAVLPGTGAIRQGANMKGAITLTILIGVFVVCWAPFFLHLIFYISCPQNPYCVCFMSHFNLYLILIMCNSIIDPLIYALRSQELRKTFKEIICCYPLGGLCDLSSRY

SMILES: C[C@@H]1CN([C@@H](C)CO)C(=O)Cc2cc(NC(=O)NC3CCCCC3)ccc2O[C@@H]1CN(C)S(=O)(=O)c1ccc(Cl)cc1
- AC50 [1]: 61.1 µM (active)

SMILES: Oc1ccc(Br)cc1CNc1cccc2cccnc12
- AC50 (INS1): 3.24 µM (active)
- IC50 [2]: 34.6 µM (active)

SMILES: COc1cc(CNC(C)c2ccccc2)cc(Cl)c1OCC(=O)Nc1ccccc1 (centres undefined)
- AC50 [3]: 2.76 µM (active)
- AC50 [4]: 3.78 µM (active)
- AC50 [5]: 2.13 µM (active)
- AC50 [1]: 39 µM (active)
- AC50 [6]: 4.69 µM (active)

- EC50 (Melanocortin receptor 4): > 89.2 µM (inactive)
SMILES: COc1ccc(-c2cc(NC(C)=O)c3ncc(-c4cccc(C(F)(F)F)c4)n3c2)c(OC)c1

SMILES: O=C1C=C2C(=CCOC2O)O1 (centres undefined) [PATULIN]
- GI50 (P388): 0.135 µM (active)
- GI50 (P388/ADR): 0.318 µM (active)
- AC50 [7]: 12.6 µM (inconclusive)
- GI50 (SN12K1): 0.998 µM (active)

SMILES: CC1=C(C(=O)OCc2ccccc2)C(c2ccc(Br)cc2)NC(=O)N1CCCCCC(=O)O (centres undefined)
- EC50 (HEK293 [8]): > 55.9 µM (inactive)
- IC50 (HEK293 [9]): > 89.2 µM (inactive)
- EC50 (Insulin-degrading enzyme [10]): > 54.7 µM (inactive)
- EC50 (Insulin-degrading enzyme [11]): > 54.7 µM (inactive)

SMILES: Cc1nn(C)c(Oc2ccccc2)c1/C=N/OCc1ccc(C(=O)OC(C)(C)C)cc1 [FENPYROXYMATE]
- AC50 [7]: 44.7 µM (inconclusive)

SMILES: Cc1ccc(N/C=C(\C#N)S(=O)(=O)c2ccccc2)cc1
- EC50 (HEK293 [8]): > 56 µM (inactive)
- IC50 (HEK293 [9]): > 89.3 µM (inactive)
- EC50 (Insulin-degrading enzyme [10]): > 54.7 µM (inactive)
- EC50 (Insulin-degrading enzyme [11]): > 54.7 µM (inactive)

SMILES: CN(C)CCCN1C(=O)c2cccc3c(Br)ccc(c23)C1=O
- EC50 [12]: 16.7 µM (active)
- EC50 [13]: > 91.2 µM (inactive)
- IC50 [14]: 29.3 µM (inactive)
- EC50 [15]: 22.1 µM (active)
- EC50 [16]: > 10.1 µM (inactive)
- IC50 [17]: > 66 µM (inactive)

SMILES: CCCC#Cc1ccc([C@@H]2[C@H](CO)N3CCCCN(S(=O)(=O)Cc4ccccc4)C[C@@H]23)cc1
- AC50 (Paired box protein Pax-8): 29.2 µM (active)
- AC50 [18]: 61.3 µM (active)
- AC50 [19]: 42.6 µM (active)
- AC50 [20]: 12.4 µM (active)
- AC50 [21]: 2.54 µM (active)

- IC50 [22]: 7.8 µM (active)
SMILES: COc1cccc(CSc2nnc(CSc3nc4nc(C)cc(C)n4n3)s2)c1

— ChEMBL document CHEMBL1201862, “PubChem BioAssay data set” (2004)
